Assay results as given in publication PMC6566410, “Novel Diamide-Based Benzenesulfonamides as Selective Carbonic Anhydrase IX Inhibitors Endowed with Antitumor Activity: Synthesis, Biological Evaluation and In Silico Insights” (International Journal of Molecular Sciences, 2019).

Columns and labels:
[1] = tested on: panel of sixty cancer cell lines; test: NCI one-dose SRB assay, whole panel; type: cell-based; details: Homo sapiens, mean over the panel, 1.00E-5 Molar, read-out: Mean Growth Percent
Method: (§1) First, all diamide-based benzenesulfonamides herein reported 5a–h were screened for their antitumor activity at one dose (10^−5 M) assay against a panel of sixty cancer cell lines through the National Cancer Institute (NCI) Developmental Therapeutic Program (www.dtp.nci.nih.gov), according to US-NCI protocol. The cell growth and cell viability were evaluated using the sulforhodamine B (SRB) colorimetric assay.
(§2) This assay was carried out according to the protocol of the Drug Evaluation Branch, NCI, Bethesda. The cell growth and cell viability were evaluated using the sulforhodamine B (SRB) colorimetric assay, as reported earlier.

[2] = tested on: ACHN; test: NCI one-dose SRB assay; type: cell-based; details: Homo sapiens, ACHN (Renal Cancer), 1.00E-5 Molar, read-out: Growth Percent
Outline: (§3)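 Read-out: sulforhodamine B colorimetric measurement of cell growth and viability. Each compound was applied once at 10^−5 M across sixty cancer cell lines under the NCI Drug Evaluation Branch protocol.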

[3] = tested on: CAKI-1; test: NCI one-dose SRB assay; type: cell-based; details: Homo sapiens, CAKI-1 (Renal Cancer), 1.00E-5 Molar, read-out: Growth Percent
Outline: as §3

[4] = tested on: COLO 205; test: NCI one-dose SRB assay; type: cell-based; details: Homo sapiens, COLO 205 (Colon Cancer), 1.00E-5 Molar, read-out: Growth Percent
Outline: as §3

[5] = tested on: HCT-15; test: NCI one-dose SRB assay; type: cell-based; details: Homo sapiens, HCT-15 (Colon Cancer), 1.00E-5 Molar, read-out: Growth Percent
Outline: as §3

[6] = tested on: HL-60(TB); test: NCI one-dose SRB assay; type: cell-based; details: Homo sapiens, HL-60(TB) (Leukemia), 1.00E-5 Molar, read-out: Growth Percent
Outline: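 NCI-60 one-dose protocol: compound at 10^−5 M; growth and viability quantified with SRB dye.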

[7] = tested on: HOP-92; test: NCI one-dose SRB assay; type: cell-based; details: Homo sapiens, HOP-92 (Non-Small Cell Lung Cancer), 1.00E-5 Molar, read-out: Growth Percent
Outline: as §3

[8] = tested on: HS 578T; test: NCI one-dose SRB assay; type: cell-based; details: Homo sapiens, HS 578T (Breast Cancer), 1.00E-5 Molar, read-out: Growth Percent
Outline: as §3

[9] = tested on: HT29; test: NCI one-dose SRB assay; type: cell-based; details: Homo sapiens, HT-29, HT29 (Colon Cancer), 1.00E-5 Molar, read-out: Growth Percent
Outline: as §3

[10] = tested on: IGROV1; test: NCI one-dose SRB assay; type: cell-based; details: Homo sapiens, IGROV-1, IGROV1 (Ovarian Cancer), 1.00E-5 Molar, read-out: Growth Percent
Outline: as §3

[11] = tested on: KM12; test: NCI one-dose SRB assay; type: cell-based; details: Homo sapiens, KM12 (Colon Cancer), 1.00E-5 Molar, read-out: Growth Percent
Outline: as §3

[12] = tested on: MALME-3M; test: NCI one-dose SRB assay; type: cell-based; details: Homo sapiens, MALME-3M (Melanoma), 1.00E-5 Molar, read-out: Growth Percent
Outline: as §3

[13] = tested on: MCF7; test: NCI one-dose SRB assay; type: cell-based; details: Homo sapiens, MCF7 (Breast Cancer), 1.00E-5 Molar, read-out: Growth Percent
Outline: as §3

[14] = tested on: MDA-MB-468; test: NCI one-dose SRB assay; type: cell-based; details: Homo sapiens, MDA-MB-468 (Breast Cancer), 1.00E-5 Molar, read-out: Growth Percent
Outline: as §3

[15] = tested on: MOLT-4; test: NCI one-dose SRB assay; type: cell-based; details: Homo sapiens, MOLT-4 (Leukemia), 1.00E-5 Molar, read-out: Growth Percent
Outline: as §3

[16] = tested on: NCI-H226; test: NCI one-dose SRB assay; type: cell-based; details: Homo sapiens, NCI-H226 (Non-Small Cell Lung Cancer), 1.00E-5 Molar, read-out: Growth Percent
Outline: as §3

[17] = tested on: NCI-H460; test: NCI one-dose SRB assay; type: cell-based; details: Homo sapiens, NCI-H460 (Non-Small Cell Lung Cancer), 1.00E-5 Molar, read-out: Growth Percent
Outline: as §3

[18] = tested on: OVCAR-3; test: NCI one-dose SRB assay; type: cell-based; details: Homo sapiens, OVCAR-3 (Ovarian Cancer), 1.00E-5 Molar, read-out: Growth Percent
Outline: as §3

[19] = tested on: OVCAR-8; test: NCI one-dose SRB assay; type: cell-based; details: Homo sapiens, OVCAR-8 (Ovarian Cancer), 1.00E-5 Molar, read-out: Growth Percent
Outline: as §3

[20] = tested on: PC-3; test: NCI one-dose SRB assay; type: cell-based; details: Homo sapiens, PC-3 (Prostate Cancer), 1.00E-5 Molar, read-out: Growth Percent
Outline: as §3

[21] = tested on: RPMI-8226; test: NCI one-dose SRB assay; type: cell-based; details: Homo sapiens, RPMI-8226 (Leukemia), 1.00E-5 Molar, read-out: Growth Percent
Outline: as §3

[22] = tested on: SK-OV-3; test: NCI one-dose SRB assay; type: cell-based; details: Homo sapiens, SK-OV-3 (Ovarian Cancer), 1.00E-5 Molar, read-out: Growth Percent
Outline: as §3

[23] = tested on: SNB-75; test: NCI one-dose SRB assay; type: cell-based; details: Homo sapiens, SNB-75 (CNS Cancer), 1.00E-5 Molar, read-out: Growth Percent
Outline: as §3

[24] = tested on: TK-10; test: NCI one-dose SRB assay; type: cell-based; details: Homo sapiens, TK-10 (Renal Cancer), 1.00E-5 Molar, read-out: Growth Percent
Outline: as §3

[25] = tested on: U251; test: NCI one-dose SRB assay; type: cell-based; details: Homo sapiens, U-251, U251 (CNS Cancer), 1.00E-5 Molar, read-out: Growth Percent
Outline: as §3

[26] = tested on: UACC-257; test: NCI one-dose SRB assay; type: cell-based; details: Homo sapiens, UACC-257 (Melanoma), 1.00E-5 Molar, read-out: Growth Percent
Outline: as §3

[27] = tested on: UACC-62; test: NCI one-dose SRB assay; type: cell-based; details: Homo sapiens, UACC-62 (Melanoma), 1.00E-5 Molar, read-out: Growth Percent
Outline: as §3

[28] = tested on: SR; test: NCI one-dose SRB assay; type: cell-based, human; details: SR (Leukemia), 1.00E-5 Molar
Method: as §1, §2

[29] = biological target: hCA I (Homo sapiens, UniProt P00915); test: stopped-flow CO2 hydrase assay
Source text: (§4) An Applied Photophysics stopped-flow instrument was used for assaying the CA catalysed CO2 hydration activity, as reported earlier [17]. The inhibition constants were obtained by non-linear least-squares methods using PRISM 3 and the Cheng-Prusoff equation as reported earlier, and represent the mean from at least three different determinations. The four tested CA isofoms were recombinant ones obtained in-house as reported earlier [26, 27, 28, 29].

[30] = biological target: hCA II (Homo sapiens, UniProt P00918); test: stopped-flow CO2 hydrase assay
Source text: as §4

Chain of hCA I (P00915 whole entry): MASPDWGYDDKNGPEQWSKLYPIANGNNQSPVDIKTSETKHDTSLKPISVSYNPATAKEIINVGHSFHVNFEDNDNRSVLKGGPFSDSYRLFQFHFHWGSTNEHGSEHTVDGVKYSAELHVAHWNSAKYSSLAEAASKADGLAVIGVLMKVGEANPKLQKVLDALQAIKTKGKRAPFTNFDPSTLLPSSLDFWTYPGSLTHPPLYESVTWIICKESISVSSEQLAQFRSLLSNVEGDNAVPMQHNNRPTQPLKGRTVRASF

| Structure (SMILES) | activity at 10 µM [1] [%] | activity at 10 µM [2] [%] | activity at 10 µM [3] [%] | activity at 10 µM [4] [%] | activity at 10 µM [5] [%] | activity at 10 µM [6] [%] | activity at 10 µM [7] [%] | activity at 10 µM [8] [%] | activity at 10 µM [9] [%] | activity at 10 µM [10] [%] | activity at 10 µM [11] [%] | activity at 10 µM [12] [%] | activity at 10 µM [13] [%] | activity at 10 µM [14] [%] | activity at 10 µM [15] [%] | activity at 10 µM [16] [%] | activity at 10 µM [17] [%] | activity at 10 µM [18] [%] | activity at 10 µM [19] [%] | activity at 10 µM [20] [%] | also measured |
| --- | --- | --- | --- | --- | --- | --- | --- | --- | --- | --- | --- | --- | --- | --- | --- | --- | --- | --- | --- | --- | --- |
| COc1ccc(C=C(NC(=O)c2ccccc2)C(=O)Nc2ccc(S(N)(=O)=O)cc2)cc1OC [Compound 5g, N-(1-(3,4-Dimethoxyphenyl)-3-oxo-3-((4-sulfamoylphenyl)amino)prop-1-en-2-yl)benzamide] | 103 | 99.8 | 104 | 110 | 101 | 101 | 126 | 94.8 | 106 | 91.6 | 104 | 101 | 106 | 111 | 107 | 93.3 | 107 | 107 | 97.1 | 103 | activity at 10 µM [21]: 107%; activity at 10 µM [22]: 97.1%; activity at 10 µM [23]: 103%; activity at 10 µM [24]: 110%; activity at 10 µM [25]: 96.3%; activity at 10 µM [26]: 101%; activity at 10 µM [27]: 94.3%; Growth Percent [28]: 82.62%; melting point: 250 to 253 °C; Ki [29]: 2210 nM; Ki [30]: 448 nM |
| Cc1ccc(C=C(NC(=O)c2ccccc2)C(=O)Nc2ccc(S(N)(=O)=O)cc2)cc1 [Compound 5d, N-(3-Oxo-3-((4-sulfamoylphenyl)amino)-1-(p-tolyl)prop-1-en-2-yl)benzamide] | 102 | 108 | 93.9 | 117 | 90.6 | 88.5 | 109 | 117 | 103 | 99.2 | 103 | 99 | 104 | 111 | 81.3 | 105 | 108 | 111 | 98.3 | 96.5 | activity at 10 µM [21]: 107%; activity at 10 µM [22]: 100%; activity at 10 µM [23]: 92.6%; activity at 10 µM [24]: 104%; activity at 10 µM [25]: 99%; activity at 10 µM [26]: 105%; activity at 10 µM [27]: 99.4%; Growth Percent [28]: 85.23%; melting point: 255 to 258 °C; Ki [29]: 796 nM; Ki [30]: 94.4 nM |
| NS(=O)(=O)c1ccc(NC(=O)C(=Cc2ccc(Cl)cc2Cl)NC(=O)c2ccccc2)cc1 [Compound 5b, N-(1-(2,4-Dichlorophenyl)-3-oxo-3-((4-sulfamoylphenyl)amino)prop-1-en-2-yl)benzamide] | 97 | 98.2 | 88.6 | 110 | 110 | 84.8 | 87 | 89.5 | 103 | 74.9 | 102 | 93.2 | 90.1 | 110 | 92.3 | 103 | 105 | 113 | 101 | 89.4 | activity at 10 µM [21]: 92.2%; activity at 10 µM [22]: 96.3%; activity at 10 µM [23]: 81.4%; activity at 10 µM [24]: 104%; activity at 10 µM [25]: 97.1%; activity at 10 µM [26]: 102%; activity at 10 µM [27]: 75%; Growth Percent [28]: 96.62%; melting point: 265 to 267 °C; Ki [29]: 5980 nM; Ki [30]: 224 nM |
